Experimental data reported in US20240158446A1, “CYCLIC COMPOUND HAVING SELECTIVE INHIBITORY ACTION ON KRAS OVER HRAS AND NRAS” (CHUGAI SEIYAKU KABUSHIKI KAISHA, priority 2021, published 2024).

Tests used:
[1] = molecular target: GDP-bound KRAS wild-type protein (Homo sapiens, UniProt P01116); test: Binding to KRAS by surface plasmon resonance (SPR), Single Cycle Kinetics; settings: SPR, Single Cycle Kinetics, GDP-bound KRAS wild-type protein; read-out: KRAS KD
[2] = molecular target: GDP-bound NRAS wild-type protein (Homo sapiens, UniProt P01111); test: Binding to NRAS by surface plasmon resonance (SPR), Single Cycle Kinetics; settings: ratio of KD for GDP-bound NRAS wild-type protein to KD for KRAS, SPR
GDP-bound NRAS wild-type protein, sequence (P01111 whole entry): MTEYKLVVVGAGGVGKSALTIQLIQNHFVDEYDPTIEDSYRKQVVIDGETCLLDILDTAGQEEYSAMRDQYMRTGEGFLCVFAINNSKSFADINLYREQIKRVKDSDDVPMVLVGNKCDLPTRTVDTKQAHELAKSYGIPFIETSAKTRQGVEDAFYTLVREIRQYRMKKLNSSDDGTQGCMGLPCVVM

[3] = molecular target: GDP-bound HRAS wild-type protein (Homo sapiens, UniProt P01112); test: Binding to HRAS by surface plasmon resonance (SPR), Single Cycle Kinetics; settings: ratio of KD for GDP-bound HRAS wild-type protein to KD for KRAS, SPR
GDP-bound HRAS wild-type protein, sequence (P01112 whole entry): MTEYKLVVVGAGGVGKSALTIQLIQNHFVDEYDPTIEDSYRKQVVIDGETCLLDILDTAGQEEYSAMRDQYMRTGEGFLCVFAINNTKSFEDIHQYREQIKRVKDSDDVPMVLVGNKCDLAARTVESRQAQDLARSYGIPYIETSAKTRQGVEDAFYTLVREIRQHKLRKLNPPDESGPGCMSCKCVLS

[4] = test system: human lung cancer strain NCI-H441; test: cells; settings: NCI-H441, 96 h, read-out: NCI-H441 IC50 (nM), NCI-H441 cell proliferation, 4 days, CellTiter-Glo;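 also: cell proliferation inhibition after four days measured by CellTiter-Glo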

GDP-bound KRAS wild-type protein, sequence (P01116 whole entry): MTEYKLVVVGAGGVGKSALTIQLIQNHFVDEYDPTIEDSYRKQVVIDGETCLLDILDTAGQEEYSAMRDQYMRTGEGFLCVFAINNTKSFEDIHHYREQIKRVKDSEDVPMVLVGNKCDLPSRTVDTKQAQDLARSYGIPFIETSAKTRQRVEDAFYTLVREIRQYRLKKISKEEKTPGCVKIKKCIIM

SMILES	Kd [1]	NRAS/KRAS (KD ratio) [2]	HRAS/KRAS (KD ratio) [3]	IC50 [4]
CCO[C@@H]1C[C@H]2C(=O)NC3(CC(F)(F)C3)C(=O)N(C)[C@@H](C(CC)CC)C(=O)N3CCC[C@@H]3CC(=O)N(C)[C@@H](CC)C(=O)N[C@@H]([C@@H](C)CC)C(=O)N(C)CC(=O)N(C)[C@H]3C/C=C\CCN(C3=O)[C@@H](Cc3ccc(C(F)(F)F)cc3)C(=O)N(C)CC(=O)N[C@@H](CCc3cc(F)c(C(F)(F)F)c(F)c3)C(=O)N2C1 [PP1608]	0.67 nM	A (a compound having 10 or more and less than 20 is denoted as A)	A (a compound having 10 or more and less than 20 is denoted as A)	70.1 nM
CCC[C@H]1C(=O)N[C@@H]([C@@H](C)CC)C(=O)N(C)CC(=O)N(C)[C@H]2C/C=C\CCN(C2=O)[C@@H](Cc2ccc(C)cc2)C(=O)N(C)CC(=O)N[C@@H](CCc2ccc(C(F)(F)F)c(Cl)c2)C(=O)N2C[C@@H](C)C[C@H]2C(=O)NC2(CCC2)C(=O)N(C)[C@@H](C2CCCC2)C(=O)N(C)[C@H](C(=O)N(C)CC)CC(=O)N1C [PP1848]	0.11 nM	–	–	22.5 nM
CC[C@H](C)[C@@H]1NC(=O)[C@H](CC(F)F)N(C)C(=O)C[C@@H](C(=O)N(C)C)N(C)C(=O)[C@H](C2CCCC2)N(C)C(=O)C2(CC(C)(C)C2)NC(=O)[C@@H]2C[C@H](C)CN2C(=O)[C@H](CCc2ccc(C(F)(F)F)c(OC)c2)NC(=O)CN(C)C(=O)[C@H](Cc2ccc(C)cc2)N2CC/C=C\C[C@@H](C2=O)N(C)C(=O)CN(C)C1=O [PP1875]	0.083 nM	–	–	7.7 nM
CC[C@H](C)[C@@H]1NC(=O)[C@H](CC)N(C)C(=O)C[C@@H](C(=O)N(C)CC)N(C)C(=O)[C@H](C2CCCC2)N(C)C(=O)C2(CC(C)(C)C2)NC(=O)[C@@H]2C[C@H](C)CN2C(=O)[C@H](CCc2cc(F)c(C(F)(F)F)c(F)c2)NC(=O)CN(C)C(=O)[C@H](Cc2ccc(C)cc2)N2CC/C=C\C[C@@H](C2=O)N(C)C(=O)CN(C)C1=O [PP1882]	0.12 nM	–	–	20.2 nM
CC[C@H](C)[C@@H]1NC(=O)[C@H](CC2CC2)N(C)C(=O)C[C@@H](C(=O)N(C)CC)N(C)C(=O)[C@H](C2CCCC2)N(C)C(=O)C2(CCC2)NC(=O)[C@@H]2C[C@@H](C)CN2C(=O)[C@H](CCc2ccc(C(F)(F)F)c(OC)c2)NC(=O)CN(C)C(=O)[C@H](Cc2ccc(C)cc2)N2CC/C=C\C[C@@H](C2=O)N(C)C(=O)CN(C)C1=O [PP1900]	0.17 nM	–	–	24.7 nM
CCO[C@@H]1C[C@H]2C(=O)NC3(CC(C)(C)C3)C(=O)N(C)[C@@H](C3CCCC3)C(=O)N(C)[C@H](C(=O)N(C)CC)CC(=O)N(C)[C@@H](C3CCC3)C(=O)N[C@@H]([C@@H](C)CC)C(=O)N(C)CC(=O)N(C)[C@H]3C/C=C\CCN(C3=O)[C@@H](Cc3ccc(C(F)(F)F)cc3)C(=O)N(C)CC(=O)N[C@@H](CCc3ccc(C(F)(F)F)c(OC)c3)C(=O)N2C1 [PP1985]	0.23 nM	–	B (a compound having 3 or more and less than 10 is denoted as B)	17.7 nM
CCCOC[C@H]1C(=O)N[C@@H]([C@@H](C)CC)C(=O)N(C)CC(=O)N(C)[C@H]2C/C=C\CCN(C2=O)[C@@H](Cc2ccc(C(F)(F)F)cc2)C(=O)N(C)CC(=O)N[C@@H](CCc2ccc(C(F)(F)F)c(OC)c2)C(=O)N2C[C@@H](C)C[C@H]2C(=O)NC2(CCC2)C(=O)N(C)[C@@H](C2CCCC2)C(=O)N(C)[C@H](C(=O)N(C)CCC)CC(=O)N1C [PP2028]	–	A (a compound having 10 or more and less than 20 is denoted as A)	B (a compound having 3 or more and less than 10 is denoted as B)	17.5 nM
CCCN(C)C(=O)[C@@H]1CC(=O)N(C)[C@@H](CCOC)C(=O)N[C@@H]([C@@H](C)CC)C(=O)N(C)CC(=O)N(C)[C@H]2C/C=C\CCN(C2=O)[C@@H](Cc2ccc(C(F)(F)F)cc2)C(=O)N(C)CC(=O)N[C@@H](CCc2ccc(C(F)(F)F)c(OC)c2)C(=O)N2C[C@@H](C)C[C@H]2C(=O)NC2(CCC2)C(=O)N(C)[C@@H](C2CCCC2)C(=O)N1C [PP2029]	–	A (a compound having 10 or more and less than 20 is denoted as A)	B (a compound having 3 or more and less than 10 is denoted as B)	18.9 nM
